Assays:
gut microbiota = assay: Gut microbiota analysis in HFD-induced AD mice; assay type: in vivo; settings: Met 140 mg/kg
Source text: (§1) In experiments with the HFD-induced AD mouse model, a total of 60 Institute of Cancer Research (ICR) male mice aged 4 weeks from Zhejiang Academy of Medical Sciences (Hangzhou, China) were used for animal experiments (permit number: ZJU20230121). The animals were provided free access to a chow diet and water. […] The HFD and normal diet were alternated every two days to maintain freshness. Weekly measurements were taken for water intake, food intake, and body weight. In the eighteenth week, the mice underwent Y-maze and NOR tests. The Morris water maze test was conducted during the nineteenth week. After confirming the successful establishment of the AD model characterized by cognitive impairment, oral administration of treatments commenced. […] Each group had 10 mice.

HFD-induced AD mice [1] = assay: Immunofluorescence staining of brain tissue of HFD-induced AD mice; assay type: in vivo
Source text: as §1
At the end of animal experiments, three mice in each group were taken for heart perfusion with cold PBS and 4% paraformaldehyde. After that, the brains of mice were fixed with 4% paraformaldehyde for 24 h and gradually dehydrated with 15% and 30% sucrose solutions for 48 h, respectively. The fixed and embedded brain sample was placed in a cryostat and cut into 20 µm thick slices with a cryostat (Thermo Fisher, Waltham, MA, USA), and brain slices in the hippocampus and cortex were collected. Finally, the brain slices were placed in antifreeze (glycerol/ethylene/PBS = 3:3:4) and kept in a refrigerator at −30 °C until immunostaining. The brain slices were fixed on a glass slide and hydrated with PBS for 5 min. Then, blocking buffer was added to the brain slices and incubated at room temperature for 1 h. Brain slices were washed twice with PBS and incubated with anti-NeuN, anti-BrdU, anti-Iba1, anti-GFAP, anti-INOS, anti-APP, or anti-p-Tau at 4 °C for 24 h, respectively. Subsequently, the brain slices were incubated with secondary antibody (goat anti-rabbit IgG H&L (Alexa Fluor® 488) or rabbit anti-mouse IgG (Cy3 conjugate)) at room temperature for 2 h after washing with PBS three times. Finally, a cover glass was used to lightly cover the slices stained with DAPI. […] Biomarker proteins in the cerebral cortex and hippocampus were digitized by Image J software (National Institutes of Health, Bethesda, MD, USA).

HFD-induced AD mice [2] = assay: Behavioral tests (Y-maze, NOR, MWM) in HFD-induced AD mice; assay type: in vivo
Source text: as §1
The Y-maze test is used to evaluate working memory, and the process was referenced in another report. In brief, the Y-maze consists of three black plastic arms (A, B, and C) with the same length (30 cm), width (10 cm), height (15 cm), and 120° relative to adjacent arms. Each mouse is placed facing the wall of arm A and allowed to explore the maze freely for 5 min. The behavior of mice is recorded with a video recorder, and the data are stored in ANY-MAZE software version 6.35 (Stoelting, Chicago, IL, USA). The total number of entries made by the mice into each arm—considered as either whole or half-body entries—is recorded. An alternation is defined as a mouse moving through all three arms without returning to the initial arm on the third visit. Alternation: number of alternations/(number of arm entries − 2) × 100%.
The NOR test is utilized to assess the working memory capabilities of mice. The NOR apparatus consists of an open, black plastic box, two identical objects, and one novel object. The activity of the mice within the open field is captured and recorded using a video recorder, with data subsequently stored in ANY-MAZE software. The test is conducted over a span of two days, incorporating habituation, training, and testing stages. During the habituation phase, the mice are placed in the box devoid of any objects, allowing them to explore freely for a duration of five min. Following a 24 h interval, the NOR test is administered, which consists of both the training and testing phases. In the training phase, each mouse is positioned in the central area of the box, where two identical objects are placed equidistant from the mouse. Each training session lasts for five minutes. After a one-hour break, one of the identical objects is replaced with a new, distinct object, and the exploration duration for each mouse is recorded. Exploration is defined by the time a mouse spends touching or sniffing an object. The exploration times during both the training and testing phases are documented via video recording, and the data are organized within ANY-MAZE software. The object recognition index was defined as follows: (time spent on the new object)/(time spent on the old object + time spent on the new object) × 100%. The data are calculated by ANY-MAZE software.
The MWM test is used to measure spatial memory and long-term memory. The whole MWM equipment includes a circular water tank (diameter 1.5 m, depth 50 cm) with warm water (22 ± 1 °C) 35 cm deep, a platform (diameter 14 cm, immersed 1 cm in water), a camera, and a computer for data analysis. The MWM test is conducted over five 5 days: 4 days for training and 1 day for testing. The pool is divided into four quadrants, and at least three quadrants are tested at a time. In the training stage, the mouse is placed on the wall of one of the four quadrants and allowed to swim and find the platform hidden underwater within 120 s. If the mouse cannot find the platform, the experimenter will guide it and let it stay on the platform for 10 s. The experiment lasts for 4 days. On the fifth day of the test phase, the platform is removed, and each mouse is placed in a similar starting position and allowed to move freely for 90 s. […]

[3] = cited from earlier work
PC12 cells [4] = assay: EdU cell proliferation in PC12 cells (inhibitor experiment); assay type: cell-based; settings: VER155008 3 µM, NH4Cl 250 µM
Procedure: In the inhibitor experiment of EdU cell proliferation activity, PC12 cells were seeded into each well of a 24-well plate as above for 24 h. Then, the medium in each well was replaced with 500 μL of serum-free […] containing VER155008 (inhibitor of Hsc70, 3 µM), or NH4Cl (inhibitor of lysosome, 250 µM) for 30 min according to the literature, and 500 μL of serum-free DMEM containing different samples was added and cultured for 24 h, respectively. After that, PC12 cells were treated with EdU for 2 h according to the operation steps of the BeyoClick™ EdU-488 cell proliferation detection kit (#C0071S, Beyotime Biotechnology, Shanghai, China). After cell labeling, the supernatant was removed. Then, PC12 cells were fixed, washed, and blocked, and the click reaction solution was added at room temperature for 30 min. After that, DAPI staining was performed for 10 min. Finally, PC12 cells were detected by fluorescence microscope (Olympus IX53, Tokyo, Japan).

[5] = test system: Hsc70, LAMP2A, APP, PKM2, and HK2 proteins; assay: Western blot of CMA proteins in PC12 cells (inhibitor experiment); assay type: cell-based; settings: TBG096 1 µM, VER155008 3 µM, 4 h, vs control
Procedure: (§2) In the inhibitor experiment of NGF-mimic activity, approximately 5 × 10^4 PC12 cells were seeded into each well of a 24-well plate and incubated for 24 h. After that, the medium in each well was replaced with 500 μL of serum-free DMEM or the serum-free DMEM containing VER155008, the inhibitor of Hsc70 protein, incubated in a CO2 incubator for 30 min. Subsequently, 500 μL of serum-free DMEM containing different samples was added and cultured, respectively. The PC12 cells with neurite outgrowth were recorded after 48 h. For the Western blot analysis, the experiment included five groups, namely the control (C) group, the NGF (40 ng/mL) group, the TBG096 (1 µM) group, the VER155008 (3 µM) group, and the VER155008 (3 µM) + TBG096 (1 µM) group. Afterwards, approximately 2 × 10^6 cells per dish were seeded into ten 6 cm Petri dishes with 5 mL of DMEM medium and incubated for 24 h. After giving different treatments with samples, the cells continued to culture for 4 h. Protein extraction was conducted to prepare for the subsequent Western blot analysis.
Approximately 50 mg of cerebral cortex from brain tissues was homogenized in RIPA lysis buffer containing 1% protease inhibitor and 1% phosphatase inhibitor. Then, the sample was centrifuged at 12,000 rpm at 4 °C for 10 min, and the supernatant was transferred to a new tube. Protein concentrations were determined using the BCA kit, and 30 µg of protein from each sample was denatured by heating in water at 100 °C for 10 min. Subsequently, approximately 30 µg of protein from each sample was loaded into each well. After conducting gel electrophoresis at 80 V for 15 min and then at 120 V for 60 min, the proteins were transferred to the polyvinylidene fluoride (PVDF) membrane for 90 min. Then, the PVDF membrane was blocked with 5% skimmed milk at room temperature for 60 min. The membrane was incubated with a diluted primary antibody at 4 °C overnight. After washing the membrane three times with TBST buffer (1× TBS buffer containing 0.05% (v/v) tween 20), it was incubated with the secondary antibody for 1 h at room temperature. Finally, the strip was developed using chemiluminescence ECL reagent, and the blot density was quantified with ImageJ (National Institutes of Health, Bethesda, MD, USA).

PC12 cells [6] = assay: NGF-mimic activity: neurite outgrowth in PC12 cells; assay type: cell-based; settings: 0.3, 1, and 3 µM, 48 h
Procedure: The neurogenic activity of samples was evaluated according to the methods described in our previous study. Briefly, approximately 5 × 10^4 cells were seeded in each well of a 24-well microplate and were cultured under a humidified atmosphere with 5% CO2 at 37 °C for 24 h. Then, the medium in each well was replaced with 1 mL of serum-free DMEM containing 40 ng/mL NGF as a positive control, 0.5% DMSO as a negative control, and the test sample after 24 h, respectively. About 100–200 cells of each well were counted from a randomly selected area and repeated thrice after 48 h. A cell-bearing neurite outgrowth longer than the diameter of the cell body was identified as a positive cell. The activity was presented as the percentage of positive cells in the selected area.
as §2

PC12 cells [7] = assay: MTT assay, cytotoxicity in PC12 cells; assay type: cell-based; settings: 10 µM
Procedure: PC12 cells were firstly inoculated into a 24-well plate and cultured for 24 h. Following this, samples at different doses were added and cultured for 24 h. Subsequently, the 0.5 mL serum-free medium containing MTT (0.2 mg/mL) of each well was used to replace the original medium and incubated for 2 h. After removing the solution, the purple crystal was dissolved in 200 μL of DMSO, and the absorbance was measured at 570 nm. The cell survival rate for each group was calculated based on the control group.

CN(C)C(=N)N=C(N)N [Met, Metformin, reference compound]
abundance of Firmicutes (decreased by HFD) and Bacteroidota (increased by HFD) (gut microbiota; TBG096 20 mg/kg): reversed
abundance of Ligilactobacillus (gut microbiota; TBG096 5 and 20 mg/kg): improved
APP and phosphorylation Tau protein in the hippocampus (HFD-induced AD mice [1]; immunofluorescence): reduction
number of mature neurons (NeuN) in the cerebral cortex (HFD-induced AD mice [1]; vs HFD-only group): increased numbers of mature neurons
number of arm entries, Y-maze test (HFD-induced AD mice [2]; TBG096 0.1, 5, 20 mg/kg, Met 140 mg/kg, 54 days): No significant differences
escape latency, MWM training phase (HFD-induced AD mice [2]; fourth day, Met 140 mg/kg and all doses of TBG096): markedly reduced
number of platform crossings, MWM test phase (HFD-induced AD mice [2]; vs HFD-only group): increased significantly

NGF: Nerve growth factor, the first recognized neurotrophic factor; positive control in PC12 assay
BBB penetration [3]: cannot penetrate the BBB

N#Cc1ccc(COC[C@H]2O[C@@H](n3c(NCc4ccc(Cl)c(Cl)c4)nc4c(N)ncnc43)[C@H](O)[C@@H]2O)cc1 [VER155008, reference compound]
effect of inhibitor on the EdU cell proliferation activity of TBG096 (PC12 cells [4]): reverse the activity
APP protein expression [5]: significantly increased
Hsc70 protein level [5]: significantly decreased
LAMP2A protein level [5]: significantly increased
PKM2 protein expression [5]: significantly increased

Cl.N [NH4Cl]
effect of inhibitor on the EdU cell proliferation activity of TBG096 (PC12 cells [4]): reverse the activity

O=C(SCCCCCCCCSCCCC(F)(F)F)c1cccc(O)c1O [compound 4]
percentage of PC12 cells exhibiting neurite growth (PC12 cells [6]): superior activity
toxicity in PC12 cells (MTT) (PC12 cells [7]): some level of toxicity
